Source: patent US20230263786A1, “MODULATION OF DRUG-DRUG INTERACTIONS OF VADADUSTAT” (Akebia Therapeutics, Inc., priority 2020, published 2023)
Each block holds one compound with its values, some of them ahead of it.

How the values were obtained:
[1] = Phase I interaction study Part 2 Arm 1: sulfasalazine; format: in vivo, human
Procedure: The study included 3 periods as follow: • Screening: performed within 28 days prior to dosing on Day 1. • Treatment period: […] In Part 2 (Arm 1): For each dose of sulfasalazine administered, blood samples for PK analysis were collected at the following timepoints: pre-dose, 0.5, 1, 2, 3, 4, 5, 6, 8, 12, 18, 24, 36, 48, 60, 72 and 96 hours postdose. […] Arm 1 (sulfasalazine): 26 subjects were treated with the study drug. On the morning of Day 1, subjects received a single oral dose of sulfasalazine 500 mg after at least a 10-hour overnight fast. Subjects would remain fasted for approximately 4 hours after dosing. Following a 5-day washout period (Days 1-5) subjects received vadadustat 600 mg once daily beginning on Day 6 for 7 days (Days 6-12). […] On Day 9, subjects received their morning dose of vadadustat 600 mg along with a single oral dose of sulfasalazine 500 mg after at least a 10-hour overnight fast. Subjects would remain fasted for at least 4 hours after dosing. Subjects were discharged from the clinical research unit on the morning of Day 13.

[2] = Phase I interaction study Part 3 Arm 2: simvastatin; format: in vivo, human; settings: administered with Compound 1 compared to alone
Procedure: Subjects would remain fasted for approximately 4 hours after dosing. […] Subjects would remain fasted for at least 4 hours after dosing. Subjects were discharged from the clinical research unit on the morning of Day 6.

[3] = Phase I ferrous sulfate tablet interaction study; settings: for Metabolite Ratio AUC(0-t) / Metabolite Ratio Cmax: Metabolite/Parent; for AUC(0-t) / Cmax / Tmax: metabolite in plasma; for AUC(0-t) / Cmax: mean; for Tmax: median;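 on all read-outs here: crossover in fasted human subjects with four-day washout between periods, plasma glucuronide metabolite pharmacokinetics, ratios computed as metabolite over parent for AUC and Cmax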
Procedure: Pharmacokinetics. […] The ratio of metabolite to parent was calculated for each glucuronide metabolite for AUC(0-t); and AUC(0-inf) and Cmax.
Comparative Bioavailability. […] Factors incorporated in the model included: Sequence, Subject (Sequence), Period, and Treatment.
Treatment of Subjects. […] All subjects are dosed on the same day for Day 1 of Confinement Period 1, and are crossed over to the alternate treatment and are dosed on the same day for Day 1 of Confinement Period 2. Both treatments are administered in a fasted state, and a four-day Washout Period separates each Confinement Period.

[4] = Phase I interaction study Part 3 Arm 1: atorvastatin; format: in vivo, human
Text: Subjects were discharged from the clinical research unit on the morning of Day 9.

[5] = both sexes, human, in vivo, 500 mg
[6] = treatment Compound 1 450 mg alone
[7] = Atorvastatin 40 mg, Compound 1 600 mg
[8] = atorvastatin 40 mg QD, vadadustat 600 mg QD

Compound: CCC(C)(C)C(=O)O[C@H]1C[C@@H](C)C=C2C=C[C@H](C)[C@H](CC[C@@H]3C[C@@H](O)CC(=O)O3)[C@H]21 [Simvastatin, simvastatin, reference compound]
increase of total exposure [2]: about 2 fold

Compound: Nc1ccc(O)c(C(=O)O)c1 [Mesalamine, mesalamine]
AUC0-last, Geometric LSM ([1]; Treatment S: sulfasalazine 500 mg alone): 220 ng·h/mL | AUC(0-inf) [1, 5]: 247 ng·h/mL | Cmax [1, 5]: 22 ng/mL

Further lines, results first:

AUC(0-inf) [1, 5]: 42800 ng·h/mL | AUC(0-t) [1, 5]: 42400 ng·h/mL | Cmax [1, 5]: 2580 ng/mL
Compound: Nc1ccc(S(=O)(=O)Nc2ccccn2)cc1 [Sulfapyridine, sulfapyridine]

Metabolite Ratio AUC(0-t) ([3]; treatment Compound 1 + Iron): 0.000458 | Metabolite Ratio Cmax ([3]; treatment Compound 1 + Iron): 0.000909 | Metabolite Ratio AUC(0-t) ([3]; treatment Compound 1 alone): 0.00543 | Metabolite Ratio Cmax ([3]; treatment Compound 1 alone): 0.00112 | AUC(0-t) [3, 6]: 208 ng·h/mL | Cmax [3, 6]: 82.6 ng/mL | Tmax [3, 6]: 1.75 h | AUC(0-t) ([3]; treatment Compound 1 + Iron): 86.4 ng·h/mL | Cmax ([3]; treatment Compound 1 + Iron): 32.2 ng/mL | Tmax ([3]; treatment Compound 1 + Iron): 3.0 h
Compound: O=C(CNC(=O)c1ncc(-c2cccc(Cl)c2)cc1O)O[C@@H]1O[C@H](C(=O)O)[C@@H](O)[C@H](O)[C@H]1O [Compound 1-acyl-glucuronide]

AUC0-∞, Ratio of geometric mean value Combined/alone [4, 7]: 112.01% | Cmax, Ratio of geometric mean value Combined/alone [4, 7]: 91.20% | AUCtau, Geometric LSM Ratio (A + V/A) [4, 8]: 111.34% | Cmax, Geometric LSM Ratio (A + V/A) [4, 8]: 91.20% | AUC ([4]; both sexes, human, plasma, oral, 40 mg, heading: AUCtau, Geometric LSM): 96 ng·h/mL | Cmax ([4]; both sexes, human, plasma, oral, 40 mg, read-out: Cmax, Geometric LSM): 15 ng/mL
Compound: CC(C)c1c(C(=O)Nc2ccccc2O)c(-c2ccccc2)c(-c2ccc(F)cc2)n1CC[C@@H](O)C[C@@H](O)CC(=O)O [o-hydroxy atorvastatin, (3R,5R)-7-[2-(4-fluorophenyl)-4-[(2-hydroxyphenyl)carbamoyl]-3-phenyl-5-propan-2-ylpyrrol-1-yl]-3,5-dihydroxyheptanoic acid]
